Data taken from ChEMBL document CHEMBL5724914, “Linking interpersonal differences in gut microbiota composition and drug biotransformation activity” (2024).

Assays:
[1] = (§1) The drug is tested on Z-025 corresponding to rabbit gut metagenome with ENA study accession number: PRJEB37062 and ENA sample accession number: ERS12561824 for biotransformation under anaerobic condition. The drug concentrations were measured over 9 timepoints collected between 0 and 24 hours of incubation by liquid-chromatography-coupled mass spectrometry (LC–MS); conditions: 2 µM
[2] = as §1, with “WLS-077” for “Z-025”, “human” for “rabbit”, “ERS12561750” for “ERS12561824”; conditions: 2 µM
[3] = as §1, with “WLS-240” for “Z-025”, “human” for “rabbit”, “ERS12561773” for “ERS12561824”; conditions: 2 µM
[4] = as §1, with “Z-026” for “Z-025”, “to” for “to rabbit gut”, “ERS12561825” for “ERS12561824”; conditions: 2 µM
[5] = human gut metagenome, 24 h, 2 µM
[6] = human gut metagenome, 24 h, 2 µM; remark: listed apart in the source
[7] = human gut metagenome, 24 h, 2 µM; remark: listed apart in the source
[8] = human gut metagenome, 24 h, 2 µM; remark: listed apart in the source
[9] = human gut metagenome, 24 h, 2 µM; remark: listed apart in the source
[10] = as §1, with “WLS-039” for “Z-025”, “human” for “rabbit”, “ERS12561746” for “ERS12561824”; conditions: 2 µM
[11] = human gut metagenome, 24 h, 2 µM; remark: listed apart in the source
[12] = as §1, with “Z-021” for “Z-025”, “to” for “to rabbit gut”, “ERS12561820” for “ERS12561824”; conditions: 2 µM
[13] = human gut metagenome, 24 h, 2 µM; remark: listed apart in the source
[14] = as §1, with “Z-008” for “Z-025”, “to” for “to rabbit gut”, “ERS12561808” for “ERS12561824”; conditions: 2 µM
[15] = human gut metagenome, 24 h, 2 µM; remark: listed apart in the source
[16] = as §1, with “WLS-010” for “Z-025”, “human” for “rabbit”, “ERS12561743” for “ERS12561824”; conditions: 2 µM
[17] = as §1, with “Z-030” for “Z-025”, “mouse” for “rabbit”, “ERS12561829” for “ERS12561824”; conditions: 2 µM
[18] = human gut metagenome, 24 h, 2 µM; remark: listed apart in the source
[19] = as §1, with “WLS-073” for “Z-025”, “human” for “rabbit”, “ERS12561749” for “ERS12561824”; conditions: 2 µM
[20] = as §1, with “Z-007” for “Z-025”, “rat” for “rabbit”, “ERS12561807” for “ERS12561824”; conditions: 2 µM
Also: call rule not given here.

Row | Structure (SMILES) | Bacterial Biotransformation [1] | Bacterial Biotransformation [2] | Bacterial Biotransformation [3] | Bacterial Biotransformation [4] | Bacterial Biotransformation [5] | Bacterial Biotransformation [6] | Bacterial Biotransformation [7] | Bacterial Biotransformation [8] | Bacterial Biotransformation [9] | Bacterial Biotransformation [10] | Bacterial Biotransformation [11] | Bacterial Biotransformation [12] | Bacterial Biotransformation [13] | Bacterial Biotransformation [14] | Bacterial Biotransformation [15] | Bacterial Biotransformation [16] | Bacterial Biotransformation [17] | Bacterial Biotransformation [18] | Bacterial Biotransformation [19] | Bacterial Biotransformation [20]
1 | CN1CCC(OC(c2ccccc2)c2ccccc2)CC1 | Compound metabolized | Compound NOT metabolized | Compound metabolized | Compound NOT metabolized | Compound NOT metabolized | Compound NOT metabolized | Compound metabolized | Compound NOT metabolized | Compound metabolized | Compound metabolized | Compound metabolized | Compound metabolized | Compound metabolized | Compound NOT metabolized | Compound metabolized | Compound NOT metabolized | Compound NOT metabolized | Compound NOT metabolized | Compound NOT metabolized | Compound NOT metabolized
2 | CCN1CCCC1CNC(=O)c1cc(S(=O)(=O)CC)c(N)cc1OC (stereo not given) [AMISULPRIDE] | Compound NOT metabolized | Compound NOT metabolized | Compound metabolized | Compound NOT metabolized | Compound NOT metabolized | Compound NOT metabolized | Compound metabolized | Compound NOT metabolized | Compound NOT metabolized | Compound NOT metabolized | Compound metabolized | Compound NOT metabolized | Compound metabolized | Compound NOT metabolized | Compound metabolized | Compound NOT metabolized | Compound NOT metabolized | Compound metabolized | Compound NOT metabolized | Compound NOT metabolized
3 | CC(C)NCC(O)COc1ccc(CC(N)=O)cc1 (stereo not given) [ATENOLOL] | Compound NOT metabolized | Compound metabolized | Compound NOT metabolized | Compound NOT metabolized | Compound NOT metabolized | Compound NOT metabolized | Compound metabolized | Compound NOT metabolized | Compound NOT metabolized | Compound NOT metabolized | Compound metabolized | Compound NOT metabolized | Compound metabolized | Compound NOT metabolized | Compound NOT metabolized | Compound NOT metabolized | Compound NOT metabolized | Compound metabolized | Compound NOT metabolized | Compound NOT metabolized
4 | CC(=O)OCC(=O)[C@@]1(OC(C)=O)[C@@H](C)C[C@H]2[C@@H]3C[C@H](F)C4=CC(=O)C=C[C@]4(C)[C@@]3(F)[C@@H](O)C[C@@]21C [DIFLORASONE DIACETATE] | Compound NOT metabolized | Compound metabolized | Compound metabolized | Compound NOT metabolized | Compound metabolized | Compound metabolized | Compound metabolized | Compound metabolized | Compound metabolized | Compound metabolized | Compound metabolized | Compound metabolized | Compound metabolized | Compound metabolized | Compound metabolized | Compound metabolized | Compound metabolized | Compound metabolized | Compound metabolized | Compound NOT metabolized
5 | CN(C)CCC=C1c2ccccc2COc2ccccc21 [DOXEPIN] | Compound NOT metabolized | Compound NOT metabolized | Compound metabolized | Compound NOT metabolized | Compound NOT metabolized | Compound NOT metabolized | Compound metabolized | Compound NOT metabolized | Compound metabolized | Compound metabolized | Compound metabolized | Compound NOT metabolized | Compound metabolized | Compound NOT metabolized | Compound metabolized | Compound NOT metabolized | Compound NOT metabolized | Compound metabolized | Compound metabolized | Compound NOT metabolized
6 | C[C@]12CCC(=O)C=C1[C@@H]1C[C@@H]1[C@H]1[C@@H]3[C@@H]4C[C@@H]4[C@@]4(CCC(=O)O4)[C@@]3(C)CC[C@@H]12 [DROSPIRENONE] | Compound NOT metabolized | Compound metabolized | Compound metabolized | Compound NOT metabolized | Compound metabolized | Compound metabolized | Compound metabolized | Compound metabolized | Compound metabolized | Compound metabolized | Compound metabolized | Compound metabolized | Compound metabolized | Compound metabolized | Compound metabolized | Compound metabolized | Compound NOT metabolized | Compound NOT metabolized | Compound metabolized | Compound NOT metabolized
7 | CC(C)c1c(CN(C)C(C)Cc2ccccc2)n(C)n(-c2ccccc2)c1=O (stereo not given) [FAMPROFAZONE] | Compound NOT metabolized | Compound metabolized | Compound metabolized | Compound NOT metabolized | Compound metabolized | Compound metabolized | Compound metabolized | Compound metabolized | Compound metabolized | Compound metabolized | Compound metabolized | Compound metabolized | Compound metabolized | Compound metabolized | Compound metabolized | Compound metabolized | Compound NOT metabolized | Compound metabolized | Compound metabolized | Compound metabolized
8 | N=C(N)NC(=O)Cc1c(Cl)cccc1Cl [GUANFACINE] | Compound NOT metabolized | Compound NOT metabolized | Compound NOT metabolized | Compound NOT metabolized | Compound NOT metabolized | Compound NOT metabolized | Compound NOT metabolized | Compound NOT metabolized | Compound NOT metabolized | Compound NOT metabolized | Compound NOT metabolized | Compound NOT metabolized | Compound NOT metabolized | Compound NOT metabolized | Compound NOT metabolized | Compound NOT metabolized | Compound NOT metabolized | Compound NOT metabolized | Compound NOT metabolized | Compound NOT metabolized
